From the NIST ThermoML archive (doi:10.1021/acs.jced.7b00609) come the findings set out here.

This series is described as follows: wn = mass fraction of the nth substance listed. The conditions noted are these: 100 kPa, Liquid, Pycnometric method.

± gives the expanded uncertainty stated by the source.

For the compound `CC1=CC(=O)c2ccccc2C1=O` [2-methyl-1,4-naphthalenedione] + C1COCCO1, the mass density (283.15 K, w1 = 0.1527) is reported as 1052.8 ± 14 kg/m3; the mass density (293.15 K, w1 = 0.2052) was determined as 1056.2 ± 14 kg/m3; the mass density (303.15 K, w1 = 0.2653) was 1057.1 ± 14 kg/m3.
As to `O=C1OC(=O)c2ccccc21` [isobenzofuran-1,3-dione] + C1COCCO1, the mass density is listed as 1052.7 ± 14 kg/m3 (283.15 K, w1 = 0.0851); 1059.7 ± 14 kg/m3 (293.15 K, w1 = 0.1354); 1061.9 ± 14 kg/m3 (303.15 K, w1 = 0.21).

In general, mass density refers to the mass of a sample divided by its volume.
